According to ChEMBL document CHEMBL1147799, “An integrated in silico 3D model-driven discovery of a novel, potent, and selective amidosulfonamide 5-HT1A agonist (PRX-00023) for the treatment of anxiety and depression” (J Med Chem, 2006):
Active and inactive are the calls of the source. No cut-off for these calls is given here.

How the values were obtained:
[1] = Protein binding in human serum at 2 uM; format: ADME, organism-based; details: read-out: PPB (converted)
Somatostatin receptor = assay: Binding affinity to somatostatin receptor by radioligand binding assay; format: protein assay
[2] = Toxicity in po dosed Sprague-Dawley rat; format: organism-based; details: in vivo
[3] = biological target: Voltage-gated inwardly rectifying potassium channel KCNH2 (Homo sapiens, UniProt Q12809); assay: Inhibition of hERG potassium channel in HEK293 cells by patch clamp assay
[4] = Binding affinity to bradykinin receptor by radioligand binding assay
[5] = Binding affinity to vasoactive intestinal peptide receptor by radioligand binding assay
[6] = biological target: 5-hydroxytryptamine receptor 1B (Rattus norvegicus, UniProt P28564); assay: Binding affinity to 5HT1B receptor in rat cerebral cortex by radioligand binding assay; format: tissue-based
5-hydroxytryptamine receptor 1B, sequence (P28564 whole entry): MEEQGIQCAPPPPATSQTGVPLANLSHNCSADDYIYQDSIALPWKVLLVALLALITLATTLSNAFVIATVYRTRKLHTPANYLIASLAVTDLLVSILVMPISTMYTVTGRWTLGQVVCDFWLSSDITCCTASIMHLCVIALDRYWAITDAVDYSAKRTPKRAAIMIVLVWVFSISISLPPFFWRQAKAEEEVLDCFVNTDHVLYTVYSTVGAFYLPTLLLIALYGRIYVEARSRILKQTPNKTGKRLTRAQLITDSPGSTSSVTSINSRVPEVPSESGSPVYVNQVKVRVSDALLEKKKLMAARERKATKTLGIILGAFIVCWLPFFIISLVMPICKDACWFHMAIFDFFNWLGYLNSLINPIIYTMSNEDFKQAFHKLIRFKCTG

[7] = Binding affinity to melanocortin receptor by radioligand binding assay
[8] = Half life in human liver microsome at 5 uM; format: ADME; details: liver microsomes
[9] = Cmax in Beagle dog at 3 mg/kg, po; format: ADME, organism-based, Canis lupus familiaris; set-up: dose 3 mg/kg, route oral; details: in vivo
[10] = Binding affinity to vasopressin receptor by radioligand binding assay
[11] = Binding affinity to neurokinin receptor by radioligand binding assay
[12] = biological target: 5-hydroxytryptamine receptor 5A (Homo sapiens, UniProt P47898); assay: Binding affinity to human 5HT5A receptor by radioligand binding assay
[13] = biological target: T1, 5-hydroxytryptamine receptor 1A (Homo sapiens, UniProt P08908); assay: Displacement of [3H]8-OH-DPAT from human 5HT1A receptor in HEK293 cells
T1 sequence (P08908 whole entry): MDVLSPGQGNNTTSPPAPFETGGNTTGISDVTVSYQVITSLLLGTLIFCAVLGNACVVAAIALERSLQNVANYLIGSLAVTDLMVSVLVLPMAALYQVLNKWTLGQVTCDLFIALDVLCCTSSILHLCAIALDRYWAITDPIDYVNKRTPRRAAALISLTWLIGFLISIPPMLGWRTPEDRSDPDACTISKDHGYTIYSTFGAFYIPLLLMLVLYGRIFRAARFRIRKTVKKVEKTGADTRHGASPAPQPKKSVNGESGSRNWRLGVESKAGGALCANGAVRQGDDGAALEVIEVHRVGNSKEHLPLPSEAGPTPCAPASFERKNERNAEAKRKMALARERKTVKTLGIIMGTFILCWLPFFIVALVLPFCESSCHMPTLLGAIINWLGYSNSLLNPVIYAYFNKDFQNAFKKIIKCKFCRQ

Mus musculus = assay: Decrease in basal rectal temperature in stress-induced hyperthermic 129S6/SvEvTac mouse at 20 mg/kg, po; format: functional, organism-based; set-up: dose 20 mg/kg
[14] = Binding affinity to galanin receptor by radioligand binding assay
Dopamine receptor = assay: Binding affinity to dopamine receptor by radioligand binding assay; format: protein assay
[15] = biological target: Serotonin 3 receptor (5HT3) (Mus musculus, UniProt Q9JHJ5+P23979); assay: Binding affinity to mouse 5HT3 receptor by radioligand binding assay; format: protein assay
Nociceptin receptor = Nociceptin receptor (Homo sapiens, UniProt P41146); assay: Binding affinity to orphanin receptor by radioligand binding assay
Nociceptin receptor, sequence (P41146 whole entry): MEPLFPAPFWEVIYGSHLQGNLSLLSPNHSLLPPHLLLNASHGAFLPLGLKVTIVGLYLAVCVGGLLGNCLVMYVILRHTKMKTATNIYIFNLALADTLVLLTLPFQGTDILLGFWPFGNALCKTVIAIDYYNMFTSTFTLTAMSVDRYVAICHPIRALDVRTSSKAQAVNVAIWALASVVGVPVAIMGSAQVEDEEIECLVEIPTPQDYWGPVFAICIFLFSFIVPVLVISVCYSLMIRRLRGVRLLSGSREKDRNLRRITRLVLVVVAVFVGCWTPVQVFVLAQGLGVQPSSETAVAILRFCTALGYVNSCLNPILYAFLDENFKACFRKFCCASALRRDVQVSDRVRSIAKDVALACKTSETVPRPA

[16] = Terminal half life in human; format: ADME, organism-based; details: in vivo
Translocator protein = Translocator protein (Homo sapiens, UniProt P30536); assay: Binding affinity to benzodiazepine receptor by radioligand binding assay
Translocator protein, sequence (P30536 whole entry): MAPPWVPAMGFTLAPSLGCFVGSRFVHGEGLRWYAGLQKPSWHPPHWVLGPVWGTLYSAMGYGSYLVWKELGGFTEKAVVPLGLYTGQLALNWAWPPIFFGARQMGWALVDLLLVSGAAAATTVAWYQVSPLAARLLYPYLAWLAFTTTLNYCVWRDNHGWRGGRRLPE

[17] = biological target: 5-hydroxytryptamine receptor 7 (Homo sapiens, UniProt P34969)
Description: Binding affinity to 5HT7 receptor by radioligand binding assay

D(2) dopamine receptor = D(2) dopamine receptor (Homo sapiens, UniProt P14416); assay: Binding affinity to D2 receptor by radioligand binding assay
D(2) dopamine receptor, sequence (P14416 whole entry): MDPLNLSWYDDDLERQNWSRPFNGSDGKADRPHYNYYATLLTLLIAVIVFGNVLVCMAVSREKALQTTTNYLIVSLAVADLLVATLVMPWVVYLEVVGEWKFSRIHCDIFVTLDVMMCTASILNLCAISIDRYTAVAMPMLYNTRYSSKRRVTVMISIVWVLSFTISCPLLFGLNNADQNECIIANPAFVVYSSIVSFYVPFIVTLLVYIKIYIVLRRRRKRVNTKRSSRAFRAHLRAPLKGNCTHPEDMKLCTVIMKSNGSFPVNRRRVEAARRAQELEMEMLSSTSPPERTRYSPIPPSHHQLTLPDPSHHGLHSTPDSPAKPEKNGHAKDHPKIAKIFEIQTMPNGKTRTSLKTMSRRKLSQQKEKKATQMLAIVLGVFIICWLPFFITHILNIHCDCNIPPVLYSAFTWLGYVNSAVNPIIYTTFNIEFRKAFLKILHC

[18] = biological target: 5-hydroxytryptamine receptor 6 (Homo sapiens, UniProt P50406); assay: Binding affinity to human 5HT6 receptor by radioligand binding assay
5-hydroxytryptamine receptor 6, sequence (P50406 whole entry): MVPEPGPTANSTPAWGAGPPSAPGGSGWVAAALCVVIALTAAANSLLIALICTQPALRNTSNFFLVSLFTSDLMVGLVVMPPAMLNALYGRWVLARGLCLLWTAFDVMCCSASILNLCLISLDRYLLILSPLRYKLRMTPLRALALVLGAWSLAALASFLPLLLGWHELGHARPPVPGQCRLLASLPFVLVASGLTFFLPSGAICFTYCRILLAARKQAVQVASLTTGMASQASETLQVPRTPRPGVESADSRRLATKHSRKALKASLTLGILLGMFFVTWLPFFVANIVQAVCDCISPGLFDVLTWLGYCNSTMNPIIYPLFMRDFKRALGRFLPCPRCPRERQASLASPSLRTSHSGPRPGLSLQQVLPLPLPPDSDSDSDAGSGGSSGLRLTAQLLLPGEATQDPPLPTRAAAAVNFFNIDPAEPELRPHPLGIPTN

Homo sapiens = species: Homo sapiens; assay: Transient increase in prolactin level in human serum at greater than 30 mg; format: functional, organism-based
[19] = biological target: T2, Alpha-2A adrenergic receptor (Rattus norvegicus) (UniProt P22909); assay: Displacement of [3H]RX 821002 from Adrenergic alpha-2a receptor in rat cerebral cortex cells at 1 uM; format: cell-based
T2 sequence (whole entry): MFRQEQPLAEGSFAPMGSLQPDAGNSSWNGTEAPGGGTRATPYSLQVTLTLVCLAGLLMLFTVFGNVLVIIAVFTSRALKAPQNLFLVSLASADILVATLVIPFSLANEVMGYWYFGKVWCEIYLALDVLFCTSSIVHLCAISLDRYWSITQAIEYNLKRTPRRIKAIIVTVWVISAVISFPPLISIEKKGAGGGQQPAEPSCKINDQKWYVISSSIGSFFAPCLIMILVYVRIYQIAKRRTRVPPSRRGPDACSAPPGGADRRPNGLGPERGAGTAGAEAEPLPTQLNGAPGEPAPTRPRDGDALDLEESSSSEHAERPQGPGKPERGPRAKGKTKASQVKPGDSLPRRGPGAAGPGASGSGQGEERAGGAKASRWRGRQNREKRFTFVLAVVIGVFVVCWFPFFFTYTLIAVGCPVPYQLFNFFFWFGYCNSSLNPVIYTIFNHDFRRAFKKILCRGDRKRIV

Cytochrome P450 2D6 = Cytochrome P450 2D6 (Homo sapiens, UniProt P10635); assay: Inhibition of human recombinant cytochrome P450 2D6; format: ADME; details: recombinant enzyme
Cytochrome P450 2D6, sequence (P10635 whole entry): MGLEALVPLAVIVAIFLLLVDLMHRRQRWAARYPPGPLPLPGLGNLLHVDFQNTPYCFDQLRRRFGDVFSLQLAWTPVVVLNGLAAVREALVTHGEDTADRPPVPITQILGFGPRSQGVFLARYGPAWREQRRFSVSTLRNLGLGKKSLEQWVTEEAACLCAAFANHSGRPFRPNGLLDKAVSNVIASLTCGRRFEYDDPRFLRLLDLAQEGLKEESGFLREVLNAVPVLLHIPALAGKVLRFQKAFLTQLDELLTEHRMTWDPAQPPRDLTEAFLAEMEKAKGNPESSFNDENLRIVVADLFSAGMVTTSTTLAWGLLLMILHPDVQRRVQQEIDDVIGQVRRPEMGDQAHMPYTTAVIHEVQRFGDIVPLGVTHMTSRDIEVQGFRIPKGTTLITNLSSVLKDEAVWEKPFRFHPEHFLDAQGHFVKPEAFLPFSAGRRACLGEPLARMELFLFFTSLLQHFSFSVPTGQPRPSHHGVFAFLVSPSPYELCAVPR

[20] = Binding affinity to chloride channel by radioligand binding assay
hERG (KCNH2) = hERG (KCNH2) (Homo sapiens, UniProt Q12809); assay: Inhibition of hERG potassium channel in HEK293 cells by patch clamp assay at 1 uM; details: HEK293 cells that express hERG
hERG (KCNH2), sequence (Q12809 whole entry): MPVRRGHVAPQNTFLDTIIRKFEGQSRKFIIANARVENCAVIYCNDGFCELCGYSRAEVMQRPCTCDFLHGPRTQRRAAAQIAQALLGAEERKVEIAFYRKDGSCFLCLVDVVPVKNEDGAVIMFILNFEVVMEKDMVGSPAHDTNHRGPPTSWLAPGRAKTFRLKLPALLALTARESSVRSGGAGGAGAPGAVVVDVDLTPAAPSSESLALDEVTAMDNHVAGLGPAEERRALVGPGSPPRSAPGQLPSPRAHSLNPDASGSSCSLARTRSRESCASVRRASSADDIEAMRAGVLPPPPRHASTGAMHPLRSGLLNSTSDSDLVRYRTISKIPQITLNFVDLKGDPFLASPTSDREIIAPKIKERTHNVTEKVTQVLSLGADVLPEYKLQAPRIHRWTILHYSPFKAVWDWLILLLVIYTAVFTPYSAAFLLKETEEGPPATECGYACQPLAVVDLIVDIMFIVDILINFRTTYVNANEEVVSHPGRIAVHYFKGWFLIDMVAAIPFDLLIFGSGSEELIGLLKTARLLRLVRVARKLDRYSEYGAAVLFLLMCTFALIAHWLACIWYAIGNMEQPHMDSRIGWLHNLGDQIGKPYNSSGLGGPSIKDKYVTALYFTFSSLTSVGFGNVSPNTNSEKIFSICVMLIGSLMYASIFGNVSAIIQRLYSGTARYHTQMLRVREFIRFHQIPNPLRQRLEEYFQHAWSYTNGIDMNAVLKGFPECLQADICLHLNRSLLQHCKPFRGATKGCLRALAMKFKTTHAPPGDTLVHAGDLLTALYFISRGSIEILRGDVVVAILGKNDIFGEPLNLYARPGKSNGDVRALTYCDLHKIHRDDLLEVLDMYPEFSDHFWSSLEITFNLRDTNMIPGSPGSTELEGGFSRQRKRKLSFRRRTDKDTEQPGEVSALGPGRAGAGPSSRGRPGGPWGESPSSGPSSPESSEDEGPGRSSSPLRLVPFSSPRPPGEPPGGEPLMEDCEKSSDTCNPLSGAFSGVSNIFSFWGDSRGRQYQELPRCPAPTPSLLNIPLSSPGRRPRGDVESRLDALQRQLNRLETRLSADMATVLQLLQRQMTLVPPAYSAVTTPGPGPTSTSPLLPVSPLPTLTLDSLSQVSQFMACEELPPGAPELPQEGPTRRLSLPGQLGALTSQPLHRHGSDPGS

[21] = biological target: Endothelin receptor, ET-A/ET-B (Homo sapiens, UniProt P24530+P25101); assay: Binding affinity to endothelin receptor by radioligand binding assay; format: protein assay
[22] = Binding affinity to neurotensin receptor by radioligand binding assay
[23] = Cmax in Sprague-Dawley rat at 3 mg/kg, po; format: ADME, organism-based; set-up: dose 3 mg/kg, route oral; details: in vivo
[24] = Binding affinity to neuropeptide receptor by radioligand binding assay
[25] = Half life in Beagle dog at 3 mg/kg, po; format: ADME, organism-based, Canis lupus familiaris; set-up: dose 3 mg/kg, route oral; details: in vivo
Cytochrome P450 2C9 = Cytochrome P450 2C9 (Homo sapiens, UniProt P11712); assay: Inhibition of human recombinant cytochrome P450 2C9; format: ADME; details: recombinant enzyme
Cytochrome P450 2C9, sequence (P11712 whole entry): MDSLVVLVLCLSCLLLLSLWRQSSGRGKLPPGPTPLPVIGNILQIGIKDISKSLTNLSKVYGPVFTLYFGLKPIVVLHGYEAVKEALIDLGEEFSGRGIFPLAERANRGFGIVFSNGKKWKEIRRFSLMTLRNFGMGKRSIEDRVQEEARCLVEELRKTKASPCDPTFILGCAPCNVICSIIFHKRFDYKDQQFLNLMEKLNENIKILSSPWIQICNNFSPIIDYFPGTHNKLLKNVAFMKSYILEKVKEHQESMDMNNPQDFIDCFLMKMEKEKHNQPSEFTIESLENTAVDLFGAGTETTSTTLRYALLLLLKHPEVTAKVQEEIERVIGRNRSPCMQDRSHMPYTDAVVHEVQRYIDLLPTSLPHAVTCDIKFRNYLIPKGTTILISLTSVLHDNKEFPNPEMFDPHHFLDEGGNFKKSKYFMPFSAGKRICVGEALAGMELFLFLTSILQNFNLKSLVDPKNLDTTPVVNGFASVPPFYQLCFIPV

[26] = Half life in human liver S9 fraction at 5 uM; format: ADME
[27] = Binding affinity to chemokine receptor by radioligand binding assay
[28] = Binding affinity to histamine receptor by radioligand binding assay
[29] = biological target: 5-hydroxytryptamine receptor 2C (Homo sapiens, UniProt P28335); assay: Binding affinity to human 5HT2C receptor by radioligand binding assay
5-hydroxytryptamine receptor 2C, sequence (P28335 whole entry): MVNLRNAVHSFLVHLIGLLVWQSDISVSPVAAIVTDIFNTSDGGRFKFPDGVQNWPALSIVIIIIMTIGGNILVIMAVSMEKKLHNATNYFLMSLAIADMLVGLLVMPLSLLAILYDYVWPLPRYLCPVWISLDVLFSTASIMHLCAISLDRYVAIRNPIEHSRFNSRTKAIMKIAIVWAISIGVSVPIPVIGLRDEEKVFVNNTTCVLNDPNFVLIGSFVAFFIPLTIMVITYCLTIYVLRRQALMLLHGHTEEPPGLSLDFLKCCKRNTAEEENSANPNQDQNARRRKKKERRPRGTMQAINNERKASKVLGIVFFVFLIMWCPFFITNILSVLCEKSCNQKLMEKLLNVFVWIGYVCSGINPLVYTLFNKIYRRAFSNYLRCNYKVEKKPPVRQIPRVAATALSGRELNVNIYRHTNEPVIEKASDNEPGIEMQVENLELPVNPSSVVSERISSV

[30] = Oral bioavailability in Sprague-Dawley rat at 3 mg/kg, po and 1 mg/kg, iv; format: ADME, organism-based; details: in vivo
[31] = biological target: T1, 5-hydroxytryptamine receptor 1A; assay: Activity against 5HT1A receptor by Gi-[35S]GTP-gamma-S binding assay; format: functional
[32] = biological target: 5-hydroxytryptamine receptor 1A (Rattus norvegicus, UniProt P19327); assay: Binding affinity to 5HT1A receptor in rat cerebral cortex by radioligand binding assay; format: tissue-based
5-hydroxytryptamine receptor 1A (Rattus norvegicus, UniProt P19327), sequence (P19327 whole entry): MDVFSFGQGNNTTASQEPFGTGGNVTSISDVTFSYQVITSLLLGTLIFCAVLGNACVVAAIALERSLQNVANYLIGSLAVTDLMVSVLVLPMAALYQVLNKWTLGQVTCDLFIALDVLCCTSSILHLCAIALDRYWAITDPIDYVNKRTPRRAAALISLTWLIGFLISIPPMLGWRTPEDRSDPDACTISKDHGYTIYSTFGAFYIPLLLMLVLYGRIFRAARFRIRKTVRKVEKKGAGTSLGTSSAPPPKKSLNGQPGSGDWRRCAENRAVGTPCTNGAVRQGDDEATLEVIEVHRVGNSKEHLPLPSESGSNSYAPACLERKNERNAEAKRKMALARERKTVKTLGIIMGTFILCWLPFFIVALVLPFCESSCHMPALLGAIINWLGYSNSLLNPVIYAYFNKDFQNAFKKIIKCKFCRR

[33] = Half life in Sprague-Dawley rat at 3 mg/kg, po; format: ADME, organism-based; set-up: dose 3 mg/kg, route oral; details: in vivo

## CC(=O)Nc1cccc(N2CCN(CCCCNS(=O)(=O)CC3CCCCC3)CC2)c1 [NALUZOTAN]
[1]
  fraction unbound at 2 µM: 0.08
Somatostatin receptor
  Ki: > 2 µM
[2]
  MTD: 300 mg/kg
[3]
  IC50: 3.8 µM
[4]
  Ki: > 2 µM
[5]
  Ki: > 2 µM
[6]
  Ki: > 2 µM
[7]
  Ki: > 2 µM
[8]
  half-life at 5 µM: 0.467 h
[9]
  Cmax: 174 ng/mL
[10]
  Ki: > 2 µM
[11]
  Ki: > 2 µM
[12]
  Ki: > 5 µM
[13]
  Ki: 0.0051 µM
Mus musculus
  Activity: Active
[14]
  Ki: > 2 µM
Dopamine receptor
  Ki: > 2 µM
[15]
  Ki: > 5 µM
Nociceptin receptor
  Ki: > 2 µM
[16]
  half-life: > 10 h
Translocator protein
  Ki: > 2 µM
[17]
  Ki: 0.7 µM
D(2) dopamine receptor
  Ki: > 2 µM
[18]
  Ki: > 5 µM
Homo sapiens
  Activity: Active
[19]
  Activity: 0%
Cytochrome P450 2D6
  Inhibition: Not Active
[20]
  Ki: > 10 µM
hERG (KCNH2)
  inhibition at 1 µM: 21%
[21]
  Ki: > 2 µM
[22]
  Ki: > 2 µM
[23]
  Cmax: 24 ng/mL
[24]
  Ki: > 2 µM
[25]
  half-life: 1.1 h
Cytochrome P450 2C9
  Inhibition: Not Active
[26]
  half-life at 5 µM: 1.08 h
[27]
  Ki: > 2 µM
[28]
  Ki: > 2 µM
[29]
  Ki: > 5 µM
[30]
  bioavailability: 11%
[31]
  EC50: 0.02 µM
[32]
  Ki: 0.017 µM
[33]
  half-life: 2 h
